≈ marks a conversion by molar mass, not a printed value. Where “and” joins values, the source holds several entries; their conditions need not be identical. Identical values can stand only once. Values belong to the molecule of their own block, whether it stands above or below them.
How the values were obtained:
Assay in all cases: ≥ marks a high value that may be exact or a test limit, other limits are often not marked, values filed in µg/mL are converted to µM
[1] = system: Candida albicans ATCC 90112
[2] = system: Staphylococcus aureus ATCC 25923
[3] = system: Pseudomonas aeruginosa ATCC 27853
[4] = system: Micrococcus luteus ATCC 10240
[5] = system: Stenotrophomonas maltophilia ATCC 13637
Proteus mirabilis = system: Proteus mirabilis
Streptococcus pyogenes = system: Streptococcus pyogenes
[6] = system: Escherichia coli ATCC 25922
[7] = system: Bacillus subtilis ATCC 6633
[8] = system: Staphylococcus epidermidis
[9] = system: Rhodococcus rhodochrous X15
[10] = system: Bacillus licheniformis X39
Serratia rubidaea X01 = system: Serratia rubidaea X01
[11] = system: Staphylococcus carnosus KHS
[12] = system: Psychrobacter faecalis X29
[13] = system: Enterococcus faecalis 981
[14] = system: Escherichia coli ATCC 25726
[15] = system: Staphylococcus aureus 127/08
[16] = system: Staphylococcus aureus T4/6
[17] = system: Candida albicans ATCC 90028
[18] = system: Staphylococcus aureus 145/08
[19] = system: Staphylococcus aureus V4180
[20] = system: Staphylococcus aureus 274/08
[21] = system: Staphylococcus aureus S908
[22] = system: Acinetobacter baumannii I NM8
[23] = system: Klebsiella pneumoniae ATCC 700603
[24] = system: Staphylococcus aureus ΔmprF
[25] = system: Staphylococcus aureus ΔmprFpRBsyn
Enterococcus faecium = system: Enterococcus faecium
[26] = system: Staphylococcus aureus 30371
[27] = system: Enterococcus faecium 94-132
[28] = system: Enterococcus faecalis CDC 21
[29] = system: Enterococcus faecalis ATCC 29212
[30] = system: Staphylococcus aureus 28841
[31] = system: Candida albicans ATCC 10231
Escherichia coli BAS 849 = system: Escherichia coli BAS 849
Klebsiella pneumoniae = system: Klebsiella pneumoniae
[32] = system: Pseudomonas aeruginosa MR3007
[33] = system: Pseudomonas aeruginosa SBI-N
[34] = system: Listeria monocytogenes EGD
Escherichia coli ML-35p = system: Escherichia coli ML-35p
[35] = system: Staphylococcus aureus 930918-3
[36] = system: Salmonella enterica serovar typhimurium MS7953s
[37] = system: Salmonella enterica subsp. enterica serovar Typhimurium ATCC 14028s
[38] = system: Pseudomonas aeruginosa MR2123

Compound: CC[C@H](C)[C@H](NC(=O)[C@H](CC(=O)O)NC(=O)[C@@H](N)Cc1ccccc1)C(=O)N[C@@H](CCSC)C(=O)NCC(=O)N[C@@H](CC(C)C)C(=O)N[C@H](C(=O)N[C@@H](CCCCN)C(=O)N[C@@H](CCCCN)C(=O)N[C@H](C(=O)N[C@@H](C)C(=O)NCC(=O)N[C@@H](C)C(=O)N[C@@H](CC(C)C)C(N)=O)C(C)C)[C@@H](C)CC [FDIMGLIKKVAGAL]
MIC [1]: 7.5 µM (≈ 11.1 µg/mL) | MIC [2]: 30 µM (≈ 44.2 µg/mL) | MIC [3]: > 30 µM | MIC [4]: 30 µM (≈ 44.2 µg/mL) | MIC [5]: 30 µM (≈ 44.2 µg/mL) | MIC (Proteus mirabilis): ≥ 60 µM | MIC (Streptococcus pyogenes): 30 µM (≈ 44.2 µg/mL) | MIC [6]: 30 µM (≈ 44.2 µg/mL) | MIC [7]: 30 µM (≈ 44.2 µg/mL) | MIC [8]: 30 µM (≈ 44.2 µg/mL)

Compound: CC(C)C[C@H](NC(=O)[C@H](CC(C)C)NC(=O)CNC(=O)[C@H](CCCCN)NC(=O)[C@H](CC(C)C)NC(=O)[C@H](CC(C)C)NC(=O)[C@H](CC(N)=O)NC(=O)CNC(=O)[C@@H](NC(=O)[C@H](Cc1ccccc1)NC(=O)[C@@H]1CCCN1C(=O)[C@H](CC(C)C)NC(=O)[C@@H](N)Cc1ccccc1)C(C)C)C(N)=O [FLPFVGNLLKGLL]
MIC [2]: 9 µM (≈ 12.9 µg/mL) | MIC [9]: 9 µM (≈ 12.9 µg/mL) | MIC [10]: 19 µM (≈ 27.2 µg/mL) | MIC (Serratia rubidaea X01): ≥ 75 µM | MIC [11]: 19 µM (≈ 27.2 µg/mL) | MIC [12]: ≥ 75 µM | MIC [13]: 19 µM (≈ 27.2 µg/mL)

Compound: CC(C)C[C@H](NC(=O)CNC(=O)[C@H](CC(C)C)NC(=O)[C@H](CCCCN)NC(=O)[C@H](CC(C)C)NC(=O)[C@H](CC(C)C)NC(=O)[C@@H]1CCCN1C(=O)CNC(=O)[C@H](CC(C)C)NC(=O)[C@H](Cc1ccccc1)NC(=O)CN)C(=O)N[C@@H](CCCCN)C(=O)NCC(=O)N[C@@H](C)C(=O)N[C@@H](C)C(=O)N[C@@H](CCCCN)C(=O)N[C@@H](CC(C)C)C(=O)N[C@@H](CC(C)C)C(=O)N1CCC[C@H]1C(=O)N[C@@H](CCC(N)=O)C(=O)N[C@@H](CC(C)C)C(=O)N[C@@H](CC(C)C)C(=O)N1CCC[C@H]1C(=O)N[C@@H](CO)C(=O)N[C@@H](CCCN=C(N)N)C(=O)N[C@@H](CCC(N)=O)C(=O)N[C@@H](CCC(N)=O)C(=O)O [GFLGPLLKLGLKGAAKLLPQLLPSRQQ]
MIC [14]: ≥ 50 µM | MIC [15]: 2.5 µM (≈ 7.14 µg/mL) | MIC [2]: 2.5 µM and 6 µM | MIC [16]: 2.5 µM (≈ 7.14 µg/mL) | MIC [17]: 12.5 µM (≈ 35.7 µg/mL) | MIC [3]: 25 µM (≈ 71.4 µg/mL) | MIC [18]: 2.5 µM (≈ 7.14 µg/mL) | MIC [19]: 2.5 µM (≈ 7.14 µg/mL) | MIC [20]: 2.5 µM (≈ 7.14 µg/mL) | MIC [21]: 2.5 µM (≈ 7.14 µg/mL) | MIC [22]: 6 µM (≈ 17.1 µg/mL) | MIC [23]: 50 µM (≈ 143 µg/mL)

Now from value to molecule:

MIC [24]: 2.93 µM (≈ 8 µg/mL) | MIC [25]: 2.93 µM and 5.86 µM
Compound: CC(C)C[C@H](NC(=O)[C@@H](NC(=O)CNC(=O)[C@H](CCCN=C(N)N)NC(=O)[C@@H](NC(=O)[C@H](CCCN=C(N)N)NC(=O)[C@@H](NC(=O)[C@H](Cc1ccc(O)cc1)NC(=O)[C@H](C)NC(=O)[C@H](Cc1ccc(O)cc1)NC(=O)[C@@H](NC(=O)[C@H](CO)NC(=O)[C@H](Cc1c[nH]c2ccccc12)NC(=O)[C@@H](N)CCCN=C(N)N)C(C)C)C(C)C)C(C)C)C(C)C)C(=O)N[C@H](C(=O)N[C@@H](CCCN=C(N)N)C(=O)N[C@@H](Cc1ccc(O)cc1)C(=O)N[C@@H](CCCN=C(N)N)C(=O)N[C@@H](CCCN=C(N)N)C(=O)N[C@@H](CO)C(=O)N[C@@H](Cc1c[nH]c2ccccc12)C(=O)O)C(C)C [RWSVYAYVRVRGVLVRYRRSW]

MIC (Enterococcus faecium): 0.113 µM (≈ 0.3 µg/mL) | MIC [26]: 1.01 µM (≈ 2.7 µg/mL) | MIC [27]: 0.075 µM (≈ 0.2 µg/mL) | MIC [28]: 0.225 µM (≈ 0.6 µg/mL) | MIC [29]: 96 µM (≈ 256 µg/mL) | MIC [30]: 0.712 µM (≈ 1.9 µg/mL) | MIC [31]: 48 µM and > 24 µM | MIC (Escherichia coli BAS 849): 0.562 µM (≈ 1.5 µg/mL) | MIC (Klebsiella pneumoniae): 0.45 µM (≈ 1.2 µg/mL) | MIC [32]: 0.412 µM (≈ 1.1 µg/mL) | MIC [33]: 0.375 µM (≈ 1 µg/mL) | MIC [34]: 0.15 µM (≈ 0.4 µg/mL) | MIC (Escherichia coli ML-35p): 0.562 µM (≈ 1.5 µg/mL) | MIC [35]: 0.637 µM (≈ 1.7 µg/mL) | MIC [36]: 0.15 µM (≈ 0.4 µg/mL) | MIC [37]: 0.6 µM (≈ 1.6 µg/mL) | MIC [6]: 96 µM (≈ 256 µg/mL) | MIC [38]: 0.3 µM (≈ 0.8 µg/mL)
Compound: CC[C@H](C)[C@H](N=C(O)[C@H](CCCCN)N=C(O)CN=C(O)[C@H](CC(C)C)N=C(O)[C@H](Cc1ccccc1)N=C(O)[C@H](CCC(=N)O)N=C(O)[C@H](Cc1ccccc1)N=C(O)[C@@H](N)C(C)C)C(O)=N[C@H](C(O)=N[C@@H](Cc1cnc[nH]1)C(O)=N[C@@H](Cc1cnc[nH]1)C(O)=N[C@H](C(O)=NCC(O)=N[C@@H](CC(=N)O)C(O)=N[C@@H](Cc1ccccc1)C(O)=N[C@H](C(O)=N[C@@H](Cc1cnc[nH]1)C(O)=NCC(O)=N[C@@H](Cc1ccccc1)C(O)=N[C@@H](CO)C(O)=N[C@@H](Cc1cnc[nH]1)C(O)=N[C@H](C(O)=N[C@@H](Cc1ccccc1)C(=N)O)C(C)C)C(C)C)C(C)C)[C@@H](C)CC [VFQFLGKIIHHVGNFVHGFSHVF]

Source: DBAASP
